Experimental data taken from patent US20060235076A1, “Medicinal composition for treating infection with drug-resistant staphylococcus aureus” (priority 2003, published 2006).
In brackets after ≈: the same amount, converted by molar mass. Where two headings read alike, the source gives them in different places.

Tests used:
Assay type in all cases: cell-based, Staphylococcus aureus
MRSA and MSSA [1] = experiment: Enhancing activity for the antibacterial activity of oxacillin by various gallates (agar plate dilution method, oxacillin MIC); conditions: for MIC: Staphylococcus aureus, oxacillin alone
Procedure: According to the agar plate dilution method defined by Japan Society of Chemotherapy, MIC (Minimum inhibitory concentration) was determined. CAMHA was prepared by adding 50 mg/l of Ca-ion, 25 mg/l of Mg-ion, and 2% of NaCl to Mueller-Hinton II Agar (MHA), and it was used as a medium for use in the measurement of sensitivity. The bacterial liquid was incubated at 37° C. overnight and diluted to 10^6 CFU/ml with saline.

MRSA = experiment: Potentiating effect of galloyl quinic acid derivatives for the antibacterial activity of oxacillin (agar plate dilution method, MIC); conditions: Staphylococcus aureus, read-out: Oxacillin MIC
Outline: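 MIC by agar plate dilution (Japan Society of Chemotherapy) on Mueller-Hinton II agar with 50 mg/l Ca, 25 mg/l Mg and 2% NaCl, inoculum diluted to 10^6 CFU/ml; tara-derived galloyl quinic acids tested combined with oxacillin.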

[2] = tested on: MRSA COL and MRSA Strain No. 5; experiment: Potentiating effect of various gallates for antibacterial activity of oxacillin (MIC by broth microdilution method and FIC); conditions: combination with oxacillin
Outline: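 Broth microdilution MIC per Japan Society of Chemotherapy method in cation-adjusted Mueller-Hinton broth (50 mg/l Ca, 25 mg/l Mg, 2% NaCl); inoculum 5×10^5 CFU/well from overnight 37° C culture. Gallate–oxacillin combinations evaluated by FIC.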

MRSA and MSSA [3] = experiment: Antibacterial activity of gallic acid, various gallates and multivalent phenol derivatives alone (agar plate dilution method, MIC); conditions: for MIC: read-out: MIC alone
Outline: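 Each compound tested alone. Bacteria cultured overnight at 37 °C, then brought to 10^6 CFU/ml in saline and tested on MHA II with added Ca-ion (50 mg/l), Mg-ion (25 mg/l) and 2% NaCl. MIC read by the Japan Society of Chemotherapy agar dilution method.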

Cc1onc(-c2ccccc2)c1C(=O)N[C@@H]1C(=O)N2[C@@H]1SC(C)(C)[C@@H]2C(=O)O [Oxacillin, oxacillin]
MIC (MRSA and MSSA [1]; ATCC 6538 / MRSA / MSSA, ATCC 6538): 0.063 µg/mL | MIC (MRSA and MSSA [1]; MRSA 1): > 256 µg/mL | MIC (MRSA and MSSA [1]; MRSA 2): 256 µg/mL | MIC (MRSA and MSSA [1]; MRSA 3): 128 µg/mL | MIC (MRSA and MSSA [1]; MRSA 4): 256 µg/mL | MIC (MRSA and MSSA [1]; MRSA 5): 256 µg/mL | MIC (MRSA and MSSA [1]; MRSA 6): > 256 µg/mL | MIC (MRSA and MSSA [1]; MRSA 7): > 256 µg/mL | MIC (MRSA and MSSA [1]; MRSA 8): 128 µg/mL | MIC (MRSA and MSSA [1]; MRSA 9): 256 µg/mL | MIC (MRSA and MSSA [1]; MRSA 10): 128 µg/mL | MIC (MRSA and MSSA [1]; MRSA 12): > 256 µg/mL | MIC (MRSA and MSSA [1]; MRSA 16): 256 µg/mL | MIC (MRSA and MSSA [1]; MRSA 17): 256 µg/mL | MIC (MRSA and MSSA [1]; MRSA 18): > 256 µg/mL | MIC (MRSA and MSSA [1]; MRSA 20): 64 µg/mL | MIC (MRSA and MSSA [1]; MRSA 21): 64 µg/mL | MIC (MRSA and MSSA [1]; MRSA 22): 32 µg/mL | MIC (MRSA and MSSA [1]; MRSA 24): < 0.5 µg/mL | MIC (MRSA and MSSA [1]; MRSA COL): 256 µg/mL | MIC (MRSA and MSSA [1]; MSSA 1003): 0.25 µg/mL | MIC (MRSA and MSSA [1]; MSSA 1010): 0.25 µg/mL | MIC (MRSA and MSSA [1]; MSSA 1020): 1 µg/mL | MIC (MRSA and MSSA [1]; MSSA 1023): 2 µg/mL | MIC (MRSA and MSSA [1]; MSSA 1029): 4 µg/mL | MIC (MRSA and MSSA [1]; MSSA 1032): 0.13 µg/mL | MIC (MRSA; ATCC 6538 / MRSA, ATCC 6538, oxacillin alone (—)): 0.063 µg/mL | MIC (MRSA; MRSA / MSSA, MSSA 1003, oxacillin alone (—)): 0.25 µg/mL | MIC (MRSA; MRSA / MSSA, MSSA 1010, oxacillin alone (—)): 0.25 µg/mL | MIC (MRSA; MRSA / MSSA, MSSA 1032, oxacillin alone (—)): 0.13 µg/mL | MIC (MRSA; MRSA, MRSA 1, oxacillin alone (—)): > 256 µg/mL | MIC (MRSA; MRSA, MRSA 2, oxacillin alone (—)): 256 µg/mL | MIC (MRSA; MRSA, MRSA 3, oxacillin alone (—)): 128 µg/mL | MIC (MRSA; MRSA, MRSA 4, oxacillin alone (—)): 256 µg/mL | MIC (MRSA; MRSA, MRSA 5, oxacillin alone (—)): 256 µg/mL | MIC (MRSA; MRSA, MRSA 6, oxacillin alone (—)): > 256 µg/mL | MIC (MRSA; MRSA, MRSA 7, oxacillin alone (—)): > 256 µg/mL | MIC (MRSA; MRSA, MRSA 8, oxacillin alone (—)): 128 µg/mL | MIC (MRSA; MRSA, MRSA 9, oxacillin alone (—)): 256 µg/mL | MIC (MRSA; MRSA, MRSA 10, oxacillin alone (—)): 128 µg/mL | MIC (MRSA; MRSA, MRSA 12, oxacillin alone (—)): > 256 µg/mL | MIC (MRSA; MRSA, MRSA 16, oxacillin alone (—)): 256 µg/mL | MIC (MRSA; MRSA, MRSA 17, oxacillin alone (—)): 256 µg/mL | MIC (MRSA; MRSA, MRSA 18, oxacillin alone (—)): > 256 µg/mL | MIC (MRSA; MRSA, MRSA 20, oxacillin alone (—)): 64 µg/mL | MIC (MRSA; MRSA, MRSA 21, oxacillin alone (—)): 64 µg/mL | MIC (MRSA; MRSA, MRSA 22, oxacillin alone (—)): 32 µg/mL | MIC (MRSA; MRSA, MRSA COL, oxacillin alone (—)): 256 µg/mL | MIC (MRSA; MRSA): 0.13 µg/mL

CCCCCOC(=O)c1cc(O)c(O)c(O)c1 [Pentyl gallate, n-pentyl gallate]
FIC value ([2]; MRSA COL): 0.375 | FIC value ([2]; MRSA Strain No. 5): 0.563 | effect of combination use with oxacillin (words) (MRSA and MSSA [1]; MRSA and MSSA): excellent potentiating effect | MIC alone (MRSA and MSSA [3]; MRSA #2): 62.5 µg/mL (≈ 260 µM) | MIC50 (MRSA and MSSA [3]; Staphylococcus aureus): 62.5 µg/mL (≈ 260 µM) | MIC (MRSA and MSSA [3]; Staphylococcus aureus, ATCC 6538 / MRSA / MSSA): 62.5 µg/mL (≈ 260 µM) | MIC (MRSA and MSSA [3]; Staphylococcus aureus, COL): 62.5 µg/mL (≈ 260 µM) | MIC (MRSA and MSSA [3]; Staphylococcus aureus, MRSA #1): 62.5 µg/mL (≈ 260 µM) | MIC (MRSA and MSSA [3]; Staphylococcus aureus, MRSA #2): 67.5 µg/mL (≈ 281 µM) | MIC (MRSA and MSSA [3]; Staphylococcus aureus, MRSA #3): 62.5 µg/mL (≈ 260 µM) | MIC (MRSA and MSSA [3]; Staphylococcus aureus, MRSA #4): 62.5 µg/mL (≈ 260 µM) | MIC (MRSA and MSSA [3]; Staphylococcus aureus, MRSA #5): 62.5 µg/mL (≈ 260 µM) | MIC (MRSA and MSSA [3]; Staphylococcus aureus, MRSA #6): 62.5 µg/mL (≈ 260 µM) | MIC (MRSA and MSSA [3]; Staphylococcus aureus, MRSA #7): 62.5 µg/mL (≈ 260 µM) | MIC (MRSA and MSSA [3]; Staphylococcus aureus, MRSA #8): 62.5 µg/mL (≈ 260 µM) | MIC (MRSA and MSSA [3]; Staphylococcus aureus, MRSA #9): 62.5 µg/mL (≈ 260 µM) | MIC (MRSA and MSSA [3]; Staphylococcus aureus, MRSA #10): 62.5 µg/mL (≈ 260 µM) | MIC (MRSA and MSSA [3]; Staphylococcus aureus, MRSA #12): 62.5 µg/mL (≈ 260 µM) | MIC (MRSA and MSSA [3]; Staphylococcus aureus, MRSA #16): 62.5 µg/mL (≈ 260 µM) | MIC (MRSA and MSSA [3]; Staphylococcus aureus, MRSA #17): 62.5 µg/mL (≈ 260 µM) | MIC (MRSA and MSSA [3]; Staphylococcus aureus, MRSA #18): 62.5 µg/mL (≈ 260 µM) | MIC (MRSA and MSSA [3]; Staphylococcus aureus, MRSA #20): 62.5 µg/mL (≈ 260 µM) | MIC (MRSA and MSSA [3]; Staphylococcus aureus, MRSA #21): 62.5 µg/mL (≈ 260 µM) | MIC (MRSA and MSSA [3]; Staphylococcus aureus, MRSA #22): 62.5 µg/mL (≈ 260 µM) | MIC (MRSA and MSSA [3]; Staphylococcus aureus, MRSA #24): 62.5 µg/mL (≈ 260 µM) | MIC (MRSA and MSSA [3]; Staphylococcus aureus, MSSA #1003): 62.5 µg/mL (≈ 260 µM) | MIC (MRSA and MSSA [3]; Staphylococcus aureus, MSSA #1010): 62.5 µg/mL (≈ 260 µM) | MIC (MRSA and MSSA [3]; Staphylococcus aureus, MSSA #1020): 62.5 µg/mL (≈ 260 µM) | MIC (MRSA and MSSA [3]; Staphylococcus aureus, MSSA #1023): 62.5 µg/mL (≈ 260 µM) | MIC (MRSA and MSSA [3]; Staphylococcus aureus, MSSA #1029): 62.5 µg/mL (≈ 260 µM) | MIC (MRSA and MSSA [3]; Staphylococcus aureus, MSSA #1032): 62.5 µg/mL (≈ 260 µM)
